# Measured values taken from the Deep4Chem optical property database.
# Assay: solvent given as SMILES
# [1] = in O=P(c1ccccc1)(c1ccccc1)c1ccccc1Oc1ccccc1P(=O)(c1ccccc1)c1ccccc1
smiles,measurement,setting,value
CCC1=C(C)C2=Cc3c4ccccc4c4n3[B-](c3cc[n+](C)cc3)(Oc3ccccc3-4)[N+]2=C1C=Cc1ccc(OC)cc1 (stereo unspecified),emission maximum,in CO,717 nm
same,emission maximum,in CS(C)=O,727 nm
C(=C\c1cc[n+]2ccc(/C=C/c3cc[nH]c3)cc2c1)/c1cc[nH]c1,emission maximum,in CO,542 nm
O=c1oc2ccccc2nc1-c1ccccc1,emission maximum,in c1ccccc1,450 nm
CCNc1cc2oc(=O)cc(C)c2cc1C,emission maximum,in CC#N,420 nm
CCC1=C(C)C(=O)n2c1cc1c(c(C)c(C(=O)OC)n1C)c2=O,emission maximum,in C1CCCCC1,435 nm
same,emission maximum,in CO,501 nm
same,emission maximum,in CS(C)=O,482 nm
same,emission maximum,in ClC(Cl)Cl,455 nm
same,emission maximum,in c1ccccc1,447 nm
CC(C)(C)c1ccc2c(c1)c1cc(C(C)(C)C)ccc1n2-c1ccccc1-c1nc(-c2ccccc2P(=O)(c2ccccc2)c2ccccc2)nc(-c2ccccc2P(=O)(c2ccccc2)c2ccccc2)n1,emission maximum,in C1CCOC1,515.1 nm
same,emission maximum,in CC#N,548.81 nm
same,emission maximum,in CC(C)=O,532.75 nm
same,emission maximum,in CN(C)C=O,539.75 nm
same,emission maximum,in Cc1ccccc1,498.41 nm
same,emission maximum,in ClC(Cl)Cl,511.13 nm
same,emission maximum,in ClCCl,526.23 nm
same,emission maximum,[1],504 nm
c1ccc(-c2nc(-c3ccccc3)nc(-c3ccc(-n4c5ccccc5c5cc(-n6c7ccccc7c7ccccc76)ccc54)cc3)n2)cc1,emission maximum,in Cc1ccccc1,458 nm
same,emission maximum,[1],475 nm
c1ccc(-c2nnc(-c3cc(-c4nnc(-c5ccccc5)o4)c(-n4c5ccccc5c5ccccc54)cc3-n3c4ccccc4c4ccccc43)o2)cc1,emission maximum,in Cc1ccccc1,439 nm
same,emission maximum,[1],459 nm
COc1ccc(-n2nc(C#N)c(N3CCCC3)n2)cc1OC,emission maximum,in CC#N,417 nm
c1cc2cc(c1)c1cccc(c1)c1ccc3ccc4ccc(cc4c3c1)c1cccc(c1)c1cccc2c1,emission maximum,in Cc1ccccc1,382 nm
c1cc(-c2ccc(-n3c4ccccc4c4ccccc43)cc2)c2nsnc2c1,emission maximum,in ClCCl,537 nm
O=c1c2ccccc2oc2cc(N3c4ccccc4C4(c5ccccc5Oc5ccccc54)c4ccccc43)ccc12,emission maximum,in Cc1ccccc1,472 nm
C(=C\c1nc2c3ccccc3c3ccccc3c2o1)/c1ccccc1,emission maximum,in CC#N,434 nm
CCCC1(CCC)c2cc(-c3ccc(C(C)(C)CC)cc3)ccc2-c2ccc(-c3ccc(C(C)(C)CC)cc3)cc21,emission maximum,in C1CCCCC1,368 nm
C[N+]1=C(/C=C/C2=C3Oc4c(cc5c6c4CCCN6CCC5)C(c4ccccc4C(=O)O)=C3CCC2)C(C)(C)c2ccccc21,emission maximum,in CC#N,760 nm
same,emission maximum,in CCO,745 nm
same,emission maximum,in CO,749 nm
same,emission maximum,in ClC(Cl)Cl,757 nm
NS(=O)(=O)c1ccc(N2N=C(c3ccc(O)cc3)CC2c2ccc([N+](=O)[O-])cc2)cc1 (stereo unspecified),emission maximum,in C1CCOC1,420 nm
same,emission maximum,in C1COCCO1,417 nm
same,emission maximum,in CC#N,419 nm
same,emission maximum,in CC(C)O,421 nm
same,emission maximum,in CCO,422 nm
same,emission maximum,in CCOC(C)=O,417 nm
same,emission maximum,in CN(C)C=O,422 nm
same,emission maximum,in CO,434 nm
same,emission maximum,in CS(C)=O,425 nm
same,emission maximum,in O,451 nm
CC/[NH+]=c1\cc2oc3cc(NCCOC(=O)C(NC(=O)OC(C)(C)C)C(C)C)c4ccccc4c3nc-2cc1C (stereo unspecified),emission maximum,in CCO,652 nm
same,emission maximum,in O,652 nm
C1=Nc2cccc3cccc(c23)N1,emission maximum,in CC#N,476 nm
same,emission maximum,in CO,485 nm
same,emission maximum,in CS(C)=O,482 nm
same,emission maximum,in Cc1ccccc1,472 nm
CCNc1cc2c(cc1C)C(c1ccccc1C(=O)O)=C1CCCC(/C=C/C3=[N+](C)c4ccc5ccccc5c4C3(C)C)=C1O2,emission maximum,in CC#N,749 nm
same,emission maximum,in CCO,741 nm
same,emission maximum,in CO,744 nm
same,emission maximum,in ClC(Cl)Cl,748 nm
c1ccc2c(c1)ncc1ccc3cnc4ccccc4c3c12,emission maximum,in CC#N,408 nm
F[B-]1(F)n2c(/C=C/c3ccc(C(=C(c4ccccc4)c4ccccc4)c4ccccc4)cc3)ccc2C(c2ccc(C(=C(c3ccccc3)c3ccccc3)c3ccccc3)cc2)=C2C=CC(/C=C/c3ccc(C(=C(c4ccccc4)c4ccccc4)c4ccccc4)cc3)=[N+]21,emission maximum,in C1CCOC1,685 nm
CCCC1=Cc2nc1ccc1[nH]c(cc1CCC)c1nc(c(OC)cc3[nH]c2cc3CCC)C(CCC)=C1,emission maximum,in Cc1ccccc1,688 nm
COCCOCCOc1ccc(OCCOCCOC)c(C=O)c1,emission maximum,in CC(C)(C)O,444 nm
same,emission maximum,in CC(C)CO,453 nm
same,emission maximum,in CC(C)O,454 nm
same,emission maximum,in CCCCO,456 nm
same,emission maximum,in CCCO,460 nm
same,emission maximum,in CCO,461 nm
same,emission maximum,in CN(C)C=O,424 nm
same,emission maximum,in CNC=O,458 nm
same,emission maximum,in CO,468 nm
same,emission maximum,in NC=O,463 nm
same,emission maximum,in O,485 nm
